{"source": "patent US20110105436A1", "about": "“HETEROARYL COMPOUNDS, COMPOSITIONS, AND METHODS OF USE IN CANCER TREATMENT” (AUCKLAND UNISERVICES LIMITED, priority 2008, published 2011)", "type_in_all_cases": "cell-based", "key": {"LC3": {"tested_on": "LC3", "assay": "LC3 processing by Western blot and immunostaining", "details": "for effect of inhibitor on vacuole formation and LC3-II induced by STF-62247: co-treatment with 1.25 μM STF-62247, 20 hrs, VHL-deficient RCC cells; for toxicity, vacuole formation and LC3-lipidated form (autophagy) of analogs: 1.25 μM, 20 hours, FIG. 5A-B", "procedure": "(§1) Western blot analysis. After treatments, cells were lysed in urea buffer (9M urea, 75 mM Tris (pH 7.5), 150 mM b-mercaptoethanol), placed on ice for 10 minutes and sonicated briefly (15 seconds). Extracts were centrifugated at 8,000×g for 10 minutes to eliminate insoluble material. Lysates were quantitated using Bio-Rad protein Assay (Bio-Rad Laboratories) and 20-30 μg of proteins were separated on a 7.5% or 15% bis-acrylamide gels and then transferred onto PVDF membranes. Proteins were visualized using HIF-2α (Novus Biological), HIF-1α, pVHL and BiP (BD Biosciences), LC3 (MBL), Atg5, or α-tubulin antibodies.\nImmunofluorescence staining. Cells were seeded on glass coverslips and at subconfluence, STF-62247 was added at 1.25 μM for RCC4 and 3.75 μM for SN12C. After 20 hours, cells were fixed in 3.7% formaldehyde for 10 min at room temperature and washed in PBS. Then cells were permeabilized in 0.2% Triton X-100 for 5 min at room temperature and washed in PBS. The coverslips were incubated with primary antibody LC3 diluted 1:500 in PBS containing 0.2% BSA for 1 hour at room temperature. Cells were washed three times in PBS-BSA and the bound primary antibody was detected using a fluorescein-conjugated secondary antibody (ALEXA) diluted 1:500 in PBS-BSA and incubated for 1 hour. Coverslips were washed and mounted in mounting medium from Vector Laboratories according to the manufacturer's instructions. Cells were examined with a confocal microscope\nA. Phase contrast pictures of VHL-deficient RCC4 and SN12C-VHL shRNA cells and VHL-positive cells RCC4 and SN12C after 20 hrs of 1.25 μM STF-62247. B. Immunostaining for LC3 following STF-62247 treatment at 1.25 μM for 20 hrs with or without 2 mM of 3-MA in RCC4 with and without VHL cells. After treatment, cells were fixed, permeabilized and processed for the detection of punctuate staining by indirect immunofluorescence. C. Autophagic vacuoles stained with monodansylcadaverine (MDC). After STF-62247 treatment in the same conditions, MDC was added for the last 10 minutes. Cells were fixed, washed with PBS and observed directly under microscope. D. Western blot for LC3 in RCC4, RCC4/VHL, SN12C, and SN12C-VHL shRNA cells after STF-62247 treatment with or without 3-MA. Nutrient starvation (EBSS) is used as positive control. E. Western blot for LC3 in RCC4 and RCC4/VHL with different concentrations of STF-62247. Tubulin was used as loading control. F. Cell viability assay in VHL-deficient RCC4 and wild-type VHL cells treated with 1 mM of 3-MA, 1.25 μM of STF-62247 alone or in combination for 24 hrs. Viability is measured by trypan blue exclusion assay and is represented by the average of three different experiments in duplicate as the percent of treated on untreated cells. The error bars are represented as SEM.\n(§2) A. VHL-deficient RCC4 and wild-type VHL were incubated in presence of 10 μM LY294002, or 1 μg/mlBrefeldin A with 1.25 μM of STF-62247 for 20 hrs and the presence of vacuoles was examined under light microscopy. B,C. LC3 processing was evaluated by Western blot after the treatment with Brefeldin A or LY294002 in presence or absence of STF-62247 as described above. Tubulin was used as loading control. D. Cells were treated with 1.25 μM of STF-62247 with or without 2 mM of 3-MA, 1 μg/ml of Brefeldin A for 20 hrs. For the last 15 min, acidic components were stained with 1 μg/ml of acridine orange and visualized under fluorescence microscope. […] F. Quantification of the FACS analysis. The data are calculated as the average of three different experiments as relative units of treated over untreated cells. The error bars are represented as the standard error of the mean (SEM).\nB,C. LC3 processing was evaluated by Western blot after the treatment with U0126 or tunicamycin in presence or absence of STF-62247 as described above. Tubulin was used as loading control."}, "[1]": {"tested_on": "RCC4, RCC4/VHL, SN12C and SN12C-VHL shRNA cells", "assay": "Acidic vesicle organelles with acridine orange (FACS)", "details": "for effect of inhibitor on autolysosomal acidification induced by STF-62247: 2 mM 3-MA or 1 μg/ml Brefeldin A with 1.25 μM STF-62247, 20 hrs; for acridine orange staining / amount of AVOs: 1.25 μM, VHL-deficient versus wild-type VHL cells", "procedure": "Quantification of Acidic Vesicle Organelles with Acridine Orange. In acridine orange-stained cells, the cytoplasm and nucleus are bright green and dim red, whereas acidic compartments are bright red. The intensity of the red fluorescence is proportional to the degree of acidity. Following 20 hours of treatment with STF-62247 or analogs, cells were stained with 1 μg/ml of acridine orange for 15 min. Cells were trypsinized and then analyzed by flow cytometry using FACScan cytometer and CellQuest software.\nas §2\n(§3) A. RCC4 and RCC4/VHL were treated with 1.25 μM of each 19 analogs for 20 hours and the presence of vacuoles was examined under light microscopy. B. Western blot for LC3 after treatment with each compound. Tubulin was used as loading control. Ratio is the relative from the IC50 in RCC4/VHL cells/IC50 in RCC4 cells. C. Acidic vesicle organelles (AVO) measured by FACS analysis in cells treated with 1.25 μM of STF-62247 or with compounds 21, 15, 25, 47, and 53 and stained with acridine orange."}, "RCC4 cells": {"tested_on": "RCC4 cells", "assay": "XTT assay in VHL-deficient RCC4 cells", "details": "Homo sapiens, 96 h; Table 1; XTT assay, VHL-deficient RCC4 cells, four days", "how_it_was_run": "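RCC4 cells with and without VHL seeded at 5000/well, then exposed next day to serially diluted compound (DMSO vehicle) for four days. Viability read by XTT (0.3 mg/ml) with PMS, 1-2 h at 37° C, absorbance at 450 nm.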"}, "RCC4/VHL cells": {"tested_on": "RCC4/VHL cells", "assay": "XTT assay, RCC4/VHL versus RCC4 cells (selectivity ratio)", "details": "for Ratio: Table 1, selectivity ratio, IC50 in RCC4/VHL cells/IC50 in RCC4 cells", "procedure": "(§4) Cell Viability and XTT assays. For cell viability, 100,000 cells were plated in a 12-well plate. The following day, 1.25 μM STF-62247 was added in the presence or absence of 1 mM 3-MA for 24 hours at 37° C. Cells were trypsinized and counted by trypan blue exclusion. For XTT assays, 5000 RCC4 with and without VHL cells or 2,500 SN12C with and without VHL shRNA cells were plated in 96-well plates. The following day, vehicle (DMSO), STF-62247 or each of 19 analogs were added to media by serial dilution. Four days later, the media was aspirated and XTT solution containing 0.3 mg/ml of XTT (Sigma Chemical Co) in Phenol Red-free media, 20% FCS and 2.65 mg/ml N-methyl dibenzopyrazine methyl sulfate (PMS) was added to the cells and incubated at 37° C. for 1-2 hours. Metabolism of XTT was quantified by measuring the absorbance at 450 nm on a plate reader.\nas §3"}, "BiP (Grp78)": {"tested_on": "BiP (Grp78)", "assay": "Western blot for BiP (ER stress)", "details": "2 μg/ml tunicamycin, FIG. 9C", "procedure": "as §1\nB,C. LC3 processing was evaluated by Western blot after the treatment with U0126 or tunicamycin in presence or absence of STF-62247 as described above. Tubulin was used as loading control. D. FACS analysis to measure the acidic vesicle organelles after staining with acridine orange in SN12C and SN12C-VHL shRNA following treatment with STF-62247 for 24 hours. E. AVO quantification from the FACS analysis in A. F. Autophagic vacuoles stained with MDC. After STF-62247 treatment with or without 3-MA, NH4Cl, MDC was added the last 10 minutes. Then, cells were fixed, washed with PBS and observed directly under microscope."}, "[2]": {"tested_on": "VHL-deficient RCC4 and wild-type VHL cells", "assay": "Cell viability by trypan blue exclusion", "details": "1 mM 3-MA, 1.25 μM STF-62247, 24 hours, FIG. 2F", "procedure": "as §4\nA. Phase contrast pictures of VHL-deficient RCC4 and SN12C-VHL shRNA cells and VHL-positive cells RCC4 and SN12C after 20 hrs of 1.25 μM STF-62247. B. Immunostaining for LC3 following STF-62247 treatment at 1.25 μM for 20 hrs with or without 2 mM of 3-MA in RCC4 with and without VHL cells. […] Viability is measured by trypan blue exclusion assay and is represented by the average of three different experiments in duplicate as the percent of treated on untreated cells. […]"}}}
{"compound": "C[C@H]1CCC/C=C/[C@@H]2C[C@H](O)C[C@H]2[C@H](O)/C=C/C(=O)O1", "note": "[Brefeldin A, reference compound]", "values": [{"measurement": "effect of inhibitor on vacuole formation and LC3-II induced by STF-62247", "setting": "LC3", "value": "abolished the formation of autophagic vacuoles and LC3-II"}, {"measurement": "effect of inhibitor on autolysosomal acidification induced by STF-62247", "setting": "[1]", "value": "resulted in a decrease in autolysosomal acidification"}]}
{"compound": "Oc1ccc(Nc2nc(-c3ccncc3)cs2)cc1", "note": "[Compound 25, 4-{[4-(4-Pyridinyl)-1,3-thiazol-2-yl]amino}phenol]", "values": [{"measurement": "IC50", "setting": "RCC4 cells", "value": 5.3, "unit": "µM"}, {"measurement": "Ratio", "setting": "RCC4/VHL cells", "value": 8}, {"measurement": "toxicity, vacuole formation and LC3-lipidated form (autophagy) of analogs", "setting": "LC3", "value": "induced significant vacuole formation and the LC3-lipidated form"}, {"measurement": "acridine orange staining / amount of AVOs", "setting": "[1]", "value": "consistertly higher in VHL-deficient cells"}]}
{"compound": "Oc1cccc(Nc2nc(-c3ccncc3)cs2)c1", "note": "[Compound 13, 3-{[4-(4-Pyridinyl)-1,3-thiazol-2-yl]amino}phenol]", "values": [{"measurement": "IC50", "setting": "RCC4 cells", "value": 28.5, "unit": "µM"}, {"measurement": "Ratio", "setting": "RCC4/VHL cells", "value": ">3"}, {"measurement": "toxicity, vacuole formation and LC3-lipidated form (autophagy) of analogs", "setting": "LC3", "value": "no toxicity or autophagy were observed"}, {"measurement": "acridine orange staining / amount of AVOs", "setting": "[1]", "value": "not influenced"}]}
{"compound": "tunicamycin [reference compound]", "values": [{"measurement": "effect of inhibitor on vacuole formation and LC3-II induced by STF-62247", "setting": "LC3", "value": "no vacuole or LC3 processing was observed"}, {"measurement": "BiP (Grp78), marker of ER stress", "setting": "BiP (Grp78)", "value": "induced BiP (Grp78)"}]}
{"compound": "Cc1cc(Nc2nc(-c3ccncc3)cs2)ccc1O", "note": "[Compound 53, 2-Methyl-4-{[4-(4-pyridinyl)-1,3-thiazol-2-yl]amino}phenol]", "values": [{"measurement": "IC50", "setting": "RCC4 cells", "value": 70, "unit": "µM"}, {"measurement": "Ratio", "setting": "RCC4/VHL cells", "value": 2.3}, {"measurement": "toxicity, vacuole formation and LC3-lipidated form (autophagy) of analogs", "setting": "LC3", "value": "no toxicity or autophagy were observed"}, {"measurement": "acridine orange staining / amount of AVOs", "setting": "[1]", "value": "not influenced"}]}
{"compound": "Cn1cnc(N)c2ncnc1-2", "note": "[Compound 3-MA, 3-methyladenine, reference compound]", "values": [{"measurement": "effect of inhibitor on vacuole formation and LC3-II induced by STF-62247", "setting": "LC3", "value": "abrogated"}, {"measurement": "effect of inhibitor on autolysosomal acidification induced by STF-62247", "setting": "[1]", "value": "resulted in a decrease in autolysosomal acidification"}, {"measurement": "viability of VHL-deficient cells treated with STF-62247 in presence of inhibitor", "setting": "[2]", "value": "partially restored"}]}
{"compound": "N#CC(=C(/N)Sc1ccccc1N)/C(C#N)=C(\\N)Sc1ccccc1N", "note": "[Compound U0126, reference compound]", "values": [{"measurement": "effect of inhibitor on vacuole formation and LC3-II induced by STF-62247", "setting": "LC3", "value": "had little effect on autophagy induced by STF-62247"}]}
{"compound": "Cc1ccc(Nc2nc(-c3ccncc3)cs2)cc1", "note": "[Compound 21, N-(4-Methylphenyl)-4-(4-pyridinyl)-1,3-thiazol-2-amine]", "values": [{"measurement": "IC50", "setting": "RCC4 cells", "value": 2.5, "unit": "µM"}, {"measurement": "Ratio", "setting": "RCC4/VHL cells", "value": 20}, {"measurement": "IC50 ratio (wild-type VHL/VHL-deficient cells)", "setting": "RCC4/VHL cells; structure-activity text on Tables 1 and 2", "value": "high ratio"}, {"measurement": "toxicity, vacuole formation and LC3-lipidated form (autophagy) of analogs", "setting": "LC3", "value": "induced significant vacuole formation and the LC3-lipidated form"}, {"measurement": "acridine orange staining / amount of AVOs", "setting": "[1]", "value": "consistertly higher in VHL-deficient cells"}]}
{"compound": "COc1cccc(Nc2nc(-c3ccncc3)cs2)c1", "note": "[Compound 15, N-(3-Methoxyphenyl)-4-(4-pyridinyl)-1,3-thiazol-2-amine]", "values": [{"measurement": "IC50", "setting": "RCC4 cells", "value": 3, "unit": "µM"}, {"measurement": "Ratio", "setting": "RCC4/VHL cells", "value": 17}, {"measurement": "toxicity, vacuole formation and LC3-lipidated form (autophagy) of analogs", "setting": "LC3", "value": "induced significant vacuole formation and the LC3-lipidated form"}, {"measurement": "acridine orange staining / amount of AVOs", "setting": "[1]", "value": "consistertly higher in VHL-deficient cells"}]}
